# According to patent US5866567A, “Diazepinones, their production and use” (Takeda Chemical Industries, Ltd., priority 1995, dated 1999):
# Biological target: T1, Human GnRH receptor (Homo sapiens, UniProt P30968)
# T1 construct: expressed in transfected cells; host or cells: CHO (Chinese hamster ovary) cells, membrane fraction
# T1 sequence (P30968 1-328): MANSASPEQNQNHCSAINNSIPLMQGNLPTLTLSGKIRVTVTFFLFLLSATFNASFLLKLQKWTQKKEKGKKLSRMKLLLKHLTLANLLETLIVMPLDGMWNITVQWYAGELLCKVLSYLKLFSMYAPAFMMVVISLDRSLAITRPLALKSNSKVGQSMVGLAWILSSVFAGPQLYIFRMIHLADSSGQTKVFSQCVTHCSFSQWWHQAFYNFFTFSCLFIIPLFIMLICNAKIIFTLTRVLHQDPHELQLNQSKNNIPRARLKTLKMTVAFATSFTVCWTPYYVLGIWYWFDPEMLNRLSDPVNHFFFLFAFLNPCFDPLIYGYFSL
# Experiment: Human GnRH receptor binding inhibition assay (125I-leuprolerin, membrane fraction of CHO cells expressing human GnRH receptors)
# Conditions: CHO cell membrane fraction with human GnRH receptors, 25° C., 60 minutes, concentration series, Hill plot, read-out: Binding inhibitory activity (IC50)
# Description: Human GnRH receptor binding inhibition assay
# (A) Preparation of ^125 I-leuprolerin
# Ten (10) μl of 3×10^-4 M aqueous leuprolerin solution and 10 μl of 0.01 mg/ml lactoperoxidase solution were taken in a tube, and 10 μl of Na^125 I solution (37 MBq) was added. After stirring, 10 μl of 0.001% H2 O2 was added and the reaction was conducted at room temperature for 20 minutes. The reaction was stopped by adding 700 μl of 0.05% TFA solution, and the reaction mixture was purified by reversed HPLC. The HPLC parameters are shown below. The retention time of ^125 I-leuprolerin was 26-27 minutes.
# Column: TSKgel ODS-80™ CTR (4.6 mm×10 cm)
# Eluent: Solvent A (0.05%TFA) Solvent B (40%CH3 CN-0.05%TFA)
# Min. 0 (100% Solvent A)--Min. 3 (100% Solvent A)--Min. 7 (50% Solvent A+50% Solvent B)--Min. 40 (100% Solvent B) Elution temperature: room temperature Elution flow rate: 1 ml/min.
# CHO cells (10^9 cells) with human GnRH receptors expressed were floated on phosphate-buffered saline containing EDTA (PBS-EDTA) and centrifuged at 100×g for 5 minutes. To the pellet obtained was added 10 ml of a cell homogenate buffer (10 mM NaHCO3, 5 mM EDTA, pH 7.5) and the mixture was homogenized using a Polytron homogenizer. The homogenate was centrifuged at 400×g for 15 minutes and the supernatant was taken in an ultracentrifuge tube and recentrifuged at 100,000×g for 1 hour. The membrane fraction thus obtained as a pellet was suspended in 2 ml of assay buffer and centrifuged at 100,000×g for 1 hour. The membrane fraction recovered was resuspended in 20 ml of assay buffer and the suspension was portioned, stored at -80° C., and thawed when needed.
# (C) Determination of the ^125 I-leuprolerin binding inhibition rate
# The membrane fraction prepared in Step (B) was diluted with assay buffer to 200 μg/ml and the dilution was portioned into tubes, 188 μl per tube. Then, 2 μl of 2 mM solution of the test compound in 60% DMSO and 10 μl of 38 nM ^125 I-leuprolerin solution in the same solvent were simultaneously added to the tubes. To determine the maximum binding, a test mixture of 2 μl of 60% DMSO and 10 μl of 38 nM ^125 I-leuprolerin solution in the same solvent was prepared. For the determination of nonspecific binding, a test mixture of 2 μl of 100 μM leuprolerin solution in 60% DMSO and 10 μl of 38 nM solution of ^125 I-leuprolerin in the same solvent was also prepared. The mixtures were respectively allowed to react at 25° C. for 60 minutes and the reaction product in each tube was filtered through a poly(ethylene imine)-treated Whatman glass filter (GF-F) under suction. The radioactivity of ^125 I-leuprolerin remaining on the filter was determined using a γ-counter.
# Using the measured values, the following equation was calculated to find the binding inhibition rate for each test compound.
# Binding inhibition (%)=(TB-SB)/(TB-NSB)×100
# [SB: radioactivity with the compound added
# TB: maximum bound radioactivity
# NBS: nonspecifically bound radioactivity]
# Using a concentration series of each test compound, the concentration of the compound which inhibited the binding by 50% (IC50) was calculated by Hill plot.
row,Compound,IC50 [nM]
1,"O=C(Nc1ccc(CN2C(=O)[C@H]3CCC[C@H]3N(C(=O)CN3C(=O)c4ccccc4C3=O)c3ccccc32)cc1)OCc1ccccc1 (relative stereo) [Example 1, (3aR*,10aS*)-9-[4-(Benzyloxycarbonylamino)benzyl]-4-(phthalimidoacetyl)-2,3,3a,4,9,10a-hexahydrobenzo[b]cyclopenta[e][1,4]diazepin-10(1H)-one]",100
2,"O=C(Nc1ccc(CN2C(=O)[C@H]3CCC[C@H]3N(C(=O)CN3C(=O)C4=C(CCCC4)C3=O)c3ccccc32)cc1)OCc1ccccc1 (relative stereo) [Example 2, (3aR*,10aS*)-9-[4-(Benzyloxycarbonylamino)benzyl]-4-(2H-1,3-dioxo-1,3,4,5,6,7-hexahydroisoindole-2-acetyl)-2,3,3a,4,9,10a-hexahydrobenzo[b]cyclopenta[e][1,4]diazepin-10(1H)-one]",70
3,"CCC(=O)Nc1ccc(CN2C(=O)[C@H]3CCC[C@H]3N(C(=O)CN3C(=O)c4ccccc4C3=O)c3ccccc32)cc1 (relative stereo) [Example 6, (3aR*,10aS*)-4-(Phthalimidoacetyl)-9-(4-propionamidobenzyl)-2,3,3a,4,9,10a-hexahydrobenzo[b]cyclopenta[e][1,4]diazepin-10(1H)-one]",800
4,"O=C(Nc1ccc(CN2C(=O)[C@H]3CCC[C@H]3N(C(=O)CN3C(=O)c4ccccc4C3=O)c3ccccc32)cc1)c1ccccc1 (relative stereo) [Example 7, (3aR*,10aS*)-9-(4-Benzamidobenzyl)-4-(phthalimidoacetyl)-2,3,3a,4,9,10a-hexahydrobenzo[b]cyclopenta[e]-[1,4]diazepin-10(1H)-one]",200
5,"O=C(Nc1ccc(CN2C(=O)[C@H]3CCC[C@H]3N(C(=O)CN3C(=O)c4ccccc4C3=O)c3ccccc32)cc1)c1ccccc1F (relative stereo) [Example 8, (3aR*,10aS*)-9-[4-(2-Fluorobenzamido)benzyl]-4-(phthalimidoacetyl)-2,3,3a,4,9,10a-hexahydrobenzo[b]cyclopenta[e][1,4]diazepin-10(1H)-one]",300
6,"O=C(Nc1ccc(CN2C(=O)[C@H]3CCC[C@H]3N(C(=O)CN3C(=O)c4ccccc4C3=O)c3ccccc32)cc1)c1cccc(F)c1 (relative stereo) [Example 9, (3aR*,10aS*)-9-[4-(3-Fluorobenzamido)benzyl]-4-(phthalimidoacetyl)-2,3,3a,4,9,10a-hexahydrobenzo[b]cyclopenta[e][1,4]diazepin-10(1H)-one]",200
7,"O=C(Nc1ccc(CN2C(=O)[C@H]3CCC[C@H]3N(C(=O)CN3C(=O)c4ccccc4C3=O)c3ccccc32)cc1)c1ccc(F)cc1 (relative stereo) [Example 10, (3aR*,10aS*)-9-[4-(4-Fluorobenzamido)benzyl]-4-(phthalimidoacetyl)-2,3,3a,4,9,10a-hexahydrobenzo[b]cyclopenta[e][1,4]diazepin-10(1H)-one]",200
8,"O=C(Nc1ccc(CN2C(=O)[C@H]3CCC[C@H]3N(C(=O)CN3C(=O)c4ccccc4C3=O)c3ccccc32)cc1)c1ccc(Cl)cc1 (relative stereo) [Example 11, (3aR*,10aS*)-9-[4-(4-Chlorobenzamido)benzyl]-4-(phthalimidoacetyl)-2,3,3a,4,9,10a-hexahydrobenzo[b]cyclopenta[e][1,4]diazepin-10(1H)-one]",200
9,"O=C(Nc1ccc(CN2C(=O)[C@H]3CCC[C@H]3N(C(=O)CN3C(=O)c4ccccc4C3=O)c3ccccc32)cc1)c1ccc(Br)cc1 (relative stereo) [Example 12, (3aR*,10aS*)-9-[4-(4-Bromobenzamido)benzyl]-4-(phthalimidoacetyl)-2,3,3a,4,9,10a-hexahydrobenzo[b]cyclopenta[e][1,4]diazepin-10(1H)-one]",300
10,"COc1cccc(C(=O)Nc2ccc(CN3C(=O)[C@H]4CCC[C@H]4N(C(=O)CN4C(=O)c5ccccc5C4=O)c4ccccc43)cc2)c1 (relative stereo) [Example 14, (3aR*,10aS*)-9-[4-(3-Methoxybenzamido)benzyl]-4-(phthalimidoacetyl)-2,3,3a,4,9,10a-hexahydrobenzo[b]cyclopenta[e][1,4]diazepin-10(1H)-one]",200
11,"COc1ccc(C(=O)Nc2ccc(CN3C(=O)[C@H]4CCC[C@H]4N(C(=O)CN4C(=O)c5ccccc5C4=O)c4ccccc43)cc2)cc1 (relative stereo) [Example 15, (3aR*,10aS*)-9-[4-(4-Methoxybenzamido)benzyl]-4-(phthalimidoacetyl)-2,3,3a,4,9,10a-hexahydrobenzo[b]cyclopenta[e][1,4]diazepin-10(1H)-one]",200
12,"O=C(CCc1ccccc1)Nc1ccc(CN2C(=O)[C@H]3CCC[C@H]3N(C(=O)CN3C(=O)c4ccccc4C3=O)c3ccccc32)cc1 (relative stereo) [Example 17, (3aR*,10aS*)-9-[4-(3-Phenylpropionamido)benzyl]-4-(phthalimidoacetyl)-2,3,3a,4,9,10a-hexahydrobenzo[b]cyclopenta[e][1,4]diazepin-10(1H)-one]",500
13,"O=C(COc1ccccc1)Nc1ccc(CN2C(=O)[C@H]3CCC[C@H]3N(C(=O)CN3C(=O)c4ccccc4C3=O)c3ccccc32)cc1 (relative stereo) [Example 18, (3aR*,10aS*)-9-[4-(Phenoxyacetamido)benzyl]-4-(phthalimidoacetyl)-2,3,3a,4,9,10a-hexahydrobenzo[b]cyclopenta[e][1,4]diazepin-10(1H)-one]",600
14,"O=C(Nc1ccc(CN2C(=O)[C@H]3CCC[C@H]3N(C(=O)CN3C(=O)c4ccccc4C3=O)c3ccccc32)cc1)c1ccc2ccccc2c1 (relative stereo) [Example 21, (3aR*,10aS*)-9-[4-(2-Naphthoylamino)benzyl]-4-(phthalimidoacetyl)-2,3,3a,4,9,10a-hexahyrobenzo[b]cyclopenta[e][1,4]diazepin-10(1H)-one]",200
15,"O=C(NCc1ccccc1)Nc1ccc(CN2C(=O)[C@H]3CCC[C@H]3N(C(=O)CN3C(=O)c4ccccc4C3=O)c3ccccc32)cc1 (relative stereo) [Example 25, (3aR*,10aS*)-9-[4-(3-benzylureido)benzyl]-4-(phthalimidoacetyl)-2,3,3a,4,9,10a-hexahydrobenzo[b]cyclopenta[e][1,4]diazepin-10(1H)-one]",30
16,"O=C(NCc1ccccc1)Nc1ccc(CN2C(=O)[C@H]3CCC[C@H]3N(C(=O)CN3C(=O)C4=C(CCCC4)C3=O)c3ccccc32)cc1 (relative stereo) [Example 26, (3aR*,10aS*)-9-[4-(3-Benzylureido)benzyl]-4-(2H-1,3-dioxo-1,3,4,5,6,7-hexahydroisoindole-2-acetyl)-2,3,3a,4,9,10a-hexahydrobenzo[b]cyclopenta[e][1,4]diazepin-10(1H)-one]",40
17,"C[C@@H](NC(=O)Nc1ccc(CN2C(=O)[C@H]3CCC[C@H]3N(C(=O)CN3C(=O)c4ccccc4C3=O)c3ccccc32)cc1)c1ccccc1 (relative stereo) [Example 27, (3aR*,10aS*)-9-[4-[3-((R)-1-Phenylethyl)ureido]-benzyl]-4-(phthalimidoacetyl)-2,3,3a,4,9,10a-hexahydrobenzo[b]cyclopenta[e][1,4]diazepin-10(1H)-one]",20
